Values quoted from earlier work in patent US20160074333A1, “Pharmaceutical compositions of tamsulosin or salts thereof” (WOCKHARDT LIMITED, priority 2013, published 2016).
Structures can show the parent of a compound that is named as a salt. Where two headings read alike, the source gives them in different places.

solubility (in ethanol): slightly soluble
solubility (in ether): practically insoluble
solubility (in glacial acetic acid): slightly soluble
solubility (in methanol): sparingly soluble
solubility (in water): sparingly soluble
Structure (SMILES): CCOc1ccccc1OCCN[C@H](C)Cc1ccc(OC)c(S(N)(=O)=O)c1 [Tamsulosin hydrochloride, (-)-(R)-5-[2-[[2-(o-Ethoxyphenoxy)ethyl]amino]propyl]-2-methoxybenzene sulfonamide, monohydrochloride]
